Results: article PMC8596589 (Chembiochem : a European journal of chemical biology, 2021)
“Also recorded” adds a separate entry of the source.

Legend:
PafA [1] = target: T1, PafA (Mycobacterium tuberculosis, UniProt P9WNU7); assay type: biochemical, Mtb; conditions: 100 µM inhibitor; 250 nM FabD; 50 nM PafA; six hours
T1 sequence (P9WNU7 1-452): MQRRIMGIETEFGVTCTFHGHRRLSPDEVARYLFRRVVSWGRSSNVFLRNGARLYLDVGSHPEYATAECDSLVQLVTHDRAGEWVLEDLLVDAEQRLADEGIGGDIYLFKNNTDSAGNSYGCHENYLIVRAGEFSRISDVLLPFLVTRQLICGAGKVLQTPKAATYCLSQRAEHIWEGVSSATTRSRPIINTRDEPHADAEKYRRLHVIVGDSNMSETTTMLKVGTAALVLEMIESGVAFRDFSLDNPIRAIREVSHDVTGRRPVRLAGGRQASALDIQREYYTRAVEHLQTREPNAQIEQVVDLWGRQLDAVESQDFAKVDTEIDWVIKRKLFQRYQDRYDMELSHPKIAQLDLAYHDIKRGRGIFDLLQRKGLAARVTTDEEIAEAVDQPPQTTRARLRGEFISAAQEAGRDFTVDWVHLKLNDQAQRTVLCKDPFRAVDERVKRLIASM

Dop [2] = target: T2, Dop (Mycolicibacterium smegmatis, UniProt A0QZ49); assay: biochemical; assay type: biochemical, M. smegmatis
T2 sequence (A0QZ49 1-498): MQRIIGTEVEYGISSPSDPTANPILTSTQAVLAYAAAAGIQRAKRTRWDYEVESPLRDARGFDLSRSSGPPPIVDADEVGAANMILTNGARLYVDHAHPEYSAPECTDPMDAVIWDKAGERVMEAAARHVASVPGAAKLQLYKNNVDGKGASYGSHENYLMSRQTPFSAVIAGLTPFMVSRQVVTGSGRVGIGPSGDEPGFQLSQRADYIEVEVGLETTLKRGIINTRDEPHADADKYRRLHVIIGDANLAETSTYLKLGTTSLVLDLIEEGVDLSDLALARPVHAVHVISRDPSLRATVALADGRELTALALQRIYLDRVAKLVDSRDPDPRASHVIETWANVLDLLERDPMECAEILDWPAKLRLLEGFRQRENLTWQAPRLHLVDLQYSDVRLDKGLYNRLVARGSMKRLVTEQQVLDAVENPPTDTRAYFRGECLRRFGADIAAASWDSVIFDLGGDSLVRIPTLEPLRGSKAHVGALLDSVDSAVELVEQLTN

PafA [3] = target: T1, PafA; assay type: biochemical, Mtb; conditions: 100 μM inhibitor; 50 nM PafA; 2 hours
PafA [4] = target: T1, PafA; assay type: biochemical, Mtb; conditions: 100 µM compound; 50 nM PafA; 2 hours
Dop [5] = target: T2, Dop; assay type: biochemical, M. smegmatis; conditions: 100 μM inhibitor; 10 nM Dop; 250 nM FabD-Pup; 30 min
Dop [6] = target: T2, Dop; assay: ATP competition assay / KM of ATP for Dop; assay type: biochemical, M. smegmatis
Dop [7] = target: T2, Dop; assay: Jump-dilution assay; assay type: biochemical, M. smegmatis

`COc1cc(/C=C(\C#N)C(=O)c2ccc(O)c(O)c2)cc(Br)c1O` [Compound 10i] was tested, and the “Inhibition of pupylation of FabD by PafA (ligase activity)” value (“Inhibition of pupylation of FabD by PafA” below) (PafA [1]) was “partly inhibited”, the IC50 (Dop [2]) was 2.7 ± 0.2 µM and the “Inhibition of depupylation of FabD-Pup by PafA” value (“Inhibition … of FabD-Pup by PafA” for short) (PafA [3]) was “partly inhibited”.

For `COc1cc(/C=C/C(=O)c2ccccc2)cc(I)c1O` [Compound 12], the IC50 (Dop [2]) was 29 µM and the “Decrease in potency compared to 1” value (Dop [2]; ratio of IC50 values vs compound 1) was 60 fold.

`N#C/C(=C\c1ccc(O)c(O)c1)C(=O)c1ccc(O)c(O)c1` [Compound 2, Tyrphostin AG538] was tested, and the “Inhibition of pupylation of FabD by PafA” value (PafA [1]) was “completely inhibited; also recorded: fully inhibits; also recorded: efficiently inhibit”, the “Inhibition of depupylation of Ino1-Pup by PafA” value (from here on “Inhibition … of Ino1-Pup by PafA”) (PafA [4]) was “partially inhibited” and the “Inhibition of depupylation of FabD-Pup by Dop” value (Dop [5]) was “failed to inhibit; also recorded: did not inhibit; also recorded: leaving Dop activity intact”. For the same compound, the “Inhibition … of FabD-Pup by PafA” value (PafA [3]) was “completely inhibited; also recorded: fully inhibits; also recorded: efficiently inhibit”.

`N#C/C(=C\c1ccccc1)C(=O)c1ccccc1` [Compound 5b] showed an IC50 (Dop [2]) of over 100 µM.

Compound `COc1cc(/C=C(\C#N)C(=O)c2ccc(O)c(O)c2)cc([N+](=O)[O-])c1O` [Compound 10b] has an IC50 (Dop [2]) of 4.1 ± 0.1 µM.

`COc1cc(/C=C(\C#N)C(=O)c2ccc(O)c(O)c2)ccc1O` [Compound 10a] showed an IC50 (Dop [2]) of over 100 µM.

`COc1cc(/C=C(\C#N)C(O)c2ccccc2)cc(I)c1O` (stereo not shown) [Compound 13] gave an IC50 (Dop [2]) of 57 µM.

`COc1cc(CC(C#N)C(O)c2ccccc2)cc(I)c1O` (stereo not shown) [Compound 14] was tested, and the “Dop inhibition in the fluorogenic assay (in words)” value (Dop [2]; Pup(33–63)-Glu(AMC) substrate, highest conc. 100 µM) was “complete loss of activity”.

In the case of `COc1cc(/C=C(\C#N)C(=O)c2ccc(O)c(O)c2)cc(I)c1O` [Compound 1, I-OMe-Tyrphostin AG538], the “Change of IC50 with ATP concentration” value (Dop [6]; eight ATP concentrations, 0.1–6.4 mM) is reported as “did not significantly increase”, the “Inhibition of pupylation of FabD by PafA” value (PafA [1]) is reported as “partly inhibited” and the “Inhibition … of Ino1-Pup by PafA” value (PafA [4]) is reported as “partially inhibited”. For the same compound, the “Dop activity after 100-fold dilution (jump-dilution)” value (Dop [7]) was “Complete restoration of Dop activity”, the “Inhibition of depupylation of FabD-Pup by Dop” value (Dop [5]) was “incompletely inhibited” and the “IC50 at 10-fold increased Dop concentration (ratio test)” value (Dop [2]) was 0.70 ± 0.03 μM. For the same compound, the “IC50 at routine Dop concentration (ratio test)” value (Dop [2]; 30 nM Dop) was 0.26 ± 0.06 µM and the “Inhibition … of FabD-Pup by PafA” value (PafA [3]) was “partly inhibited”.

In the case of `Nc1ncnc2c1ncn2[C@@H]1O[C@H](COP(=O)(O)OP(=O)(O)OP(=O)(O)O)[C@@H](O)[C@H]1O` [ATP], the Km (Dop [6]; read-out: KM of ATP for Dop, Michaelis-Menten curve of Dop vs. [ATP]) is reported as 320 ± 30 µM.

`N#C/C(=C\c1cc(O)c(O)c(I)c1)C(=O)c1ccc(O)c(O)c1` [Compound 10k] was tested, and the “Inhibition of pupylation of FabD by PafA” value (PafA [1]) was “completely inhibited”, the “Inhibition … of Ino1-Pup by PafA” value (PafA [4]) was “fully inhibited” and the IC50 (Dop [2]) was 0.29 ± 0.01 µM. The “Inhibition … of FabD-Pup by PafA” value (PafA [3]) was “completely inhibited”.

`COc1cc(/C=C(\C#N)C(=O)c2ccccc2)cc(I)c1O` [Compound 5a] was tested, and the IC50 (Dop [2]) was 5.4 ± 0.5 µM.
